{"source": "patent US20150024025A1", "about": "“ALIGNED N[…] AXONAL RE[…] SPINAL CORD INJURY OR SURGERY” (THE UAB RESEARCH FOUNDATION, priority 2012, published 2015)", "origin": "cited, not measured here", "tested_on": "spinal cord injury", "data": [{"substance": "chondroitinase ABC", "values": [{"measurement": "axonal repair and regeneration in vivo after spinal cord injury", "value": "promotes axonal repair and regeneration"}]}]}
